Experimental data as given in ChEMBL document CHEMBL5715954, “Silencing c-Myc translation as a therapeutic strategy through targeting PI3Kδ and CK1ε in hematological malignancies” (Blood, 2017).

How the values were obtained:
Design in all cases: scale not given: the % may be the effect or the level left
[1] = molecular target: T1, Myosin light chain kinase (Homo sapiens) (UniProt Q32MK0); assay: Inhibition of human MYLK3 assessed as enzyme activity at 1 uM using KKRPQRRYSNVF as substrate preincubated for 20 mins followed by [gamma-33P]-ATP addition and measured after 120 mins by radiometric Hot-SpotSM Kinase assay relative to control
T1 sequence (whole entry): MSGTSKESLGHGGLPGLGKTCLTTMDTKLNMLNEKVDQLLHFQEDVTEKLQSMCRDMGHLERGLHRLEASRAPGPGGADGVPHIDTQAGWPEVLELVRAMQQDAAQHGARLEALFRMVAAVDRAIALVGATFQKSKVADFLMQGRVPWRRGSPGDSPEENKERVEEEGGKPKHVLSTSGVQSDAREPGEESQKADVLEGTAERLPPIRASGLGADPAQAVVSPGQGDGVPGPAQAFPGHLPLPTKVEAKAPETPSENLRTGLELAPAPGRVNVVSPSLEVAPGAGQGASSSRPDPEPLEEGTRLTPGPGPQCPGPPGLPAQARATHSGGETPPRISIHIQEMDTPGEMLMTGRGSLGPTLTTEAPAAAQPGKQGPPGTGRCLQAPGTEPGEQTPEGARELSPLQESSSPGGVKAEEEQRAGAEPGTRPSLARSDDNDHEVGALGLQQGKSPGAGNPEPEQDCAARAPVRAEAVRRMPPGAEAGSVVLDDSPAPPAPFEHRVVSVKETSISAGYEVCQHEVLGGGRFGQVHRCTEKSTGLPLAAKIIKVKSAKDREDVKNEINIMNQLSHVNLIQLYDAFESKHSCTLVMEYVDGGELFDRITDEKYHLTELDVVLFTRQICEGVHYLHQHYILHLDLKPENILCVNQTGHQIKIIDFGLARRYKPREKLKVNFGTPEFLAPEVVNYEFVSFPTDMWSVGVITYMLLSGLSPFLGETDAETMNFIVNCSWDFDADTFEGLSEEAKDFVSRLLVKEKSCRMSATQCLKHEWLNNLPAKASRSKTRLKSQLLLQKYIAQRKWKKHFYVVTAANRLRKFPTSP

[2] = molecular target: Leukocyte tyrosine kinase receptor (Homo sapiens) (UniProt P29376); assay: Inhibition of human TYK1/LTK assessed as enzyme activity at 1 uM using EAIYAAPFAKKK as substrate preincubated for 20 mins followed by [gamma-33P]-ATP addition and measured after 120 mins by radiometric Hot-SpotSM Kinase assay relative to control
[3] = molecular target: Phosphorylase b kinase gamma catalytic chain, skeletal muscle/heart isoform (Homo sapiens) (UniProt Q16816); assay: Inhibition of human PHKg1 assessed as enzyme activity at 1 uM using KKLNRTLSFAEPG as substrate preincubated for 20 mins followed by [gamma-33P]-ATP addition and measured after 120 mins by radiometric Hot-SpotSM Kinase assay relative to control
[4] = molecular target: T2, Homeodomain-interacting protein kinase 4 (Homo sapiens) (UniProt Q8NE63); assay: Inhibition of human HIPK4 assessed as enzyme activity at 1 uM using myelin basic protein as substrate preincubated for 20 mins followed by [gamma-33P]-ATP addition and measured after 120 mins by radiometric Hot-SpotSM Kinase assay relative to control
T2 sequence (whole entry): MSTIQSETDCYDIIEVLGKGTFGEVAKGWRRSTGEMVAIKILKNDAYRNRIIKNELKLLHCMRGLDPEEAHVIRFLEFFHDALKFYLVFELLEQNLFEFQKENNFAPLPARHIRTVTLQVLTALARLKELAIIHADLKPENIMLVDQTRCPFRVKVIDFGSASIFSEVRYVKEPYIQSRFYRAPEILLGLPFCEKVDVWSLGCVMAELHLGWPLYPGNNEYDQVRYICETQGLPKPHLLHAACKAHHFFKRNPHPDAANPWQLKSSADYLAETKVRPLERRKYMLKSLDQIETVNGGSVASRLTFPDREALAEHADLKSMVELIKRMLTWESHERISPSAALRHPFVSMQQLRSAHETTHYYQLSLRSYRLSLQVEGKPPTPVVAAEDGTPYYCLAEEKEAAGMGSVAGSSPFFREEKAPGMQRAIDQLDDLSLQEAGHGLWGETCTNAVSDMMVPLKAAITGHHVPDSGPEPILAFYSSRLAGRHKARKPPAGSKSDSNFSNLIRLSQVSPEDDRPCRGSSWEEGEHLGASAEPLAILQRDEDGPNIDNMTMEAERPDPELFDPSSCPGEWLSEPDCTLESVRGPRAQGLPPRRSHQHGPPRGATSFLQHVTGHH

[5] = molecular target: Insulin receptor (Homo sapiens) (UniProt P06213); assay: Inhibition of human IR assessed as enzyme activity at 1 uM using poly[Glu:Tyr] (4:1) as substrate preincubated for 20 mins followed by [gamma-33P]-ATP addition and measured after 120 mins by radiometric Hot-SpotSM Kinase assay relative to control
[6] = molecular target: T3, Mitogen-activated protein kinase 12 (Homo sapiens) (UniProt P53778); assay: Inhibition of human P38g assessed as enzyme activity at 1 uM using myelin basic protein as substrate preincubated for 20 mins followed by [gamma-33P]-ATP addition and measured after 120 mins by radiometric Hot-SpotSM Kinase assay relative to control
T3 sequence (whole entry): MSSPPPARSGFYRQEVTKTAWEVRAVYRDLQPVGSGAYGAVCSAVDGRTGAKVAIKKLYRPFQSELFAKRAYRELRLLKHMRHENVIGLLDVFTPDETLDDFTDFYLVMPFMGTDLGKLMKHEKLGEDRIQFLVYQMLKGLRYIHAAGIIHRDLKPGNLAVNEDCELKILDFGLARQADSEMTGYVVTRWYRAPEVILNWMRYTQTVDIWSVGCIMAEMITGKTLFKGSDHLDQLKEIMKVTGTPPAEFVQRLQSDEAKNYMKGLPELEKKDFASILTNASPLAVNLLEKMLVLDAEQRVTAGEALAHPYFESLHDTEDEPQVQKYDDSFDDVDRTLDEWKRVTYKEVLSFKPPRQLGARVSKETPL

[7] = molecular target: BDNF/NT-3 growth factors receptor (Homo sapiens) (UniProt Q16620); assay: Inhibition of human TRKB assessed as enzyme activity at 1 uM using poly[Glu:Tyr] (4:1) as substrate preincubated for 20 mins followed by [gamma-33P]-ATP addition and measured after 120 mins by radiometric Hot-SpotSM Kinase assay relative to control
[8] = molecular target: Serine/threonine-protein kinase Nek4 (Homo sapiens) (UniProt P51957); assay: Inhibition of human NEK4 assessed as enzyme activity at 1 uM using myelin basic protein as substrate preincubated for 20 mins followed by [gamma-33P]-ATP addition and measured after 120 mins by radiometric Hot-SpotSM Kinase assay relative to control
[9] = molecular target: Insulin receptor-related protein (Homo sapiens) (UniProt P14616); assay: Inhibition of human IRR assessed as enzyme activity at 1 uM using myelin basic protein as substrate preincubated for 20 mins followed by [gamma-33P]-ATP addition and measured after 120 mins by radiometric Hot-SpotSM Kinase assay relative to control
Chain of Insulin receptor-related protein (Homo sapiens) (P14616 27-742 limits assumed): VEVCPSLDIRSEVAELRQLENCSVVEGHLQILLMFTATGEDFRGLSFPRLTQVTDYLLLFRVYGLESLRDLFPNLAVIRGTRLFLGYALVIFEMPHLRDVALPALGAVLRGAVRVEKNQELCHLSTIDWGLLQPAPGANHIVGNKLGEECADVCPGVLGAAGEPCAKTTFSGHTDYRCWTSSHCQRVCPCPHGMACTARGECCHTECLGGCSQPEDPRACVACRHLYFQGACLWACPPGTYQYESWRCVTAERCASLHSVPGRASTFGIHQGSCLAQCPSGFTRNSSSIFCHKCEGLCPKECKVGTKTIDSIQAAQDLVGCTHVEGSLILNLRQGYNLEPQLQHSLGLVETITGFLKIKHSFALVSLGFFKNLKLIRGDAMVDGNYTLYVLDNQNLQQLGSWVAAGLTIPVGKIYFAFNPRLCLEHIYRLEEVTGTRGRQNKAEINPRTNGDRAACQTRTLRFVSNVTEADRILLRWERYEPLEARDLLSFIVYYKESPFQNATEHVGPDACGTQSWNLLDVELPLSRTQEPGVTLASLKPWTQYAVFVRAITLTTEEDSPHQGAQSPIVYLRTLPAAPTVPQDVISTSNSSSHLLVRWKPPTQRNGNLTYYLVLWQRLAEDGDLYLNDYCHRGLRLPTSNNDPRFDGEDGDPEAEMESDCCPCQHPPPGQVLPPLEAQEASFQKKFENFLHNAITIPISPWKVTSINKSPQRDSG
Chain of Insulin receptor-related protein (Homo sapiens) (P14616 747-1297 limits assumed): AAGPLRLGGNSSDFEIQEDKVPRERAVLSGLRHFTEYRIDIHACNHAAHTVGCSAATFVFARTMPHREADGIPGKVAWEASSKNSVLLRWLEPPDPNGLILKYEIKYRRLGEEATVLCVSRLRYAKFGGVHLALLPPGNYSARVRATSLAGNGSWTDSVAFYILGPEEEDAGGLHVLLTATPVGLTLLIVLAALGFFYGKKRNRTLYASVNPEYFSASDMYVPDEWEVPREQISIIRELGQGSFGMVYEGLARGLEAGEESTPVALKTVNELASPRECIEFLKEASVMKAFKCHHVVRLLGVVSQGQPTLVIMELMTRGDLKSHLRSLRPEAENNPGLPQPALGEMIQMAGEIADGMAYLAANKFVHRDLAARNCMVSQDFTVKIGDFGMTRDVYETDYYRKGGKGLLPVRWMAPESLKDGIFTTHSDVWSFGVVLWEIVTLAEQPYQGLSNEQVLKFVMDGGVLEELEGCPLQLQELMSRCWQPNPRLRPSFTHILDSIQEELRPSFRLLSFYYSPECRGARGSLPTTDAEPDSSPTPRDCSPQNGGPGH

Chain of Serine/threonine-protein kinase Nek4 (Homo sapiens) (P51957 whole entry, looked up): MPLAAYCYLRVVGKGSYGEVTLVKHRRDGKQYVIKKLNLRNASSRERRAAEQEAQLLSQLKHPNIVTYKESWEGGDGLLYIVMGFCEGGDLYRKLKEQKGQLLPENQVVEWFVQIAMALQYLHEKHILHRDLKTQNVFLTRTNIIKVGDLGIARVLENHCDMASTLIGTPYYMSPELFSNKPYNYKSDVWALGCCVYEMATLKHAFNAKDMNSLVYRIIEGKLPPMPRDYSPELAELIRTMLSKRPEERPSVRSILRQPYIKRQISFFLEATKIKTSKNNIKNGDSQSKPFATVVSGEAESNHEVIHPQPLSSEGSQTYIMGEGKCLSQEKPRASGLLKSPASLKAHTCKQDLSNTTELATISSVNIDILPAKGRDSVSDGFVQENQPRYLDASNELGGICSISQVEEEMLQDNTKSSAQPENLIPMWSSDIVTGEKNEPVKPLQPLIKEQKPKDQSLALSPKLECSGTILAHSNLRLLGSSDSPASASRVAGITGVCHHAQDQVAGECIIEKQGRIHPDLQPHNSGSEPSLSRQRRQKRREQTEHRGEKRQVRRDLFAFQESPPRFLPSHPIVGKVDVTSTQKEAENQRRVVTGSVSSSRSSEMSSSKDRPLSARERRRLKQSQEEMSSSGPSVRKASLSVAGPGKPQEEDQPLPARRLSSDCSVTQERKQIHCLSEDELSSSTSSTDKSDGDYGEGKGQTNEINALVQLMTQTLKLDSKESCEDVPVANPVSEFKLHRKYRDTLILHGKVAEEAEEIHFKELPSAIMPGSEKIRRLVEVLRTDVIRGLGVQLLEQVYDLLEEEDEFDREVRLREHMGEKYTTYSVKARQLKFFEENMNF
Chain of BDNF/NT-3 growth factors receptor (Homo sapiens) (Q16620 32-822 limits assumed): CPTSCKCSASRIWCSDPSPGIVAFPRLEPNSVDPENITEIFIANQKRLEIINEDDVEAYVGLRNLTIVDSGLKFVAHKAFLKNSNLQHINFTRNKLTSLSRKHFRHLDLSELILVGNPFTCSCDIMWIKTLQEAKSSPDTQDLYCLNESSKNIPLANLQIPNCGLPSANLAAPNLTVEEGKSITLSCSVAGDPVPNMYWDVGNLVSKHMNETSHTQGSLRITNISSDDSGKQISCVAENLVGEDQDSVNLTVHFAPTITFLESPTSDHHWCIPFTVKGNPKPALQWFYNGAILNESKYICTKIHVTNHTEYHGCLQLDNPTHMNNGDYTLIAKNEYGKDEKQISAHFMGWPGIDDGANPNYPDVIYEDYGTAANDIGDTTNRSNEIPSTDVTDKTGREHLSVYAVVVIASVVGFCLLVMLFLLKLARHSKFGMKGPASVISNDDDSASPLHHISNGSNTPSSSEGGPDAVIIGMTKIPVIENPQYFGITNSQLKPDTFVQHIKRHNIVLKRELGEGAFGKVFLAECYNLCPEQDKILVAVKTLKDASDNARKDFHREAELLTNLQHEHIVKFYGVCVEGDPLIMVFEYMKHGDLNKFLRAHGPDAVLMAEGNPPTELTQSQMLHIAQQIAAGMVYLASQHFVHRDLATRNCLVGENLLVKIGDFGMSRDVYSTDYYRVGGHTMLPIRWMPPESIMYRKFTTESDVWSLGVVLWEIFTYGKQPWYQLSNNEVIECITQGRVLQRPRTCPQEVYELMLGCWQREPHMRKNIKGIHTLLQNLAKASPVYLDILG
Chain of Insulin receptor (Homo sapiens) (P06213 28-758 limits assumed): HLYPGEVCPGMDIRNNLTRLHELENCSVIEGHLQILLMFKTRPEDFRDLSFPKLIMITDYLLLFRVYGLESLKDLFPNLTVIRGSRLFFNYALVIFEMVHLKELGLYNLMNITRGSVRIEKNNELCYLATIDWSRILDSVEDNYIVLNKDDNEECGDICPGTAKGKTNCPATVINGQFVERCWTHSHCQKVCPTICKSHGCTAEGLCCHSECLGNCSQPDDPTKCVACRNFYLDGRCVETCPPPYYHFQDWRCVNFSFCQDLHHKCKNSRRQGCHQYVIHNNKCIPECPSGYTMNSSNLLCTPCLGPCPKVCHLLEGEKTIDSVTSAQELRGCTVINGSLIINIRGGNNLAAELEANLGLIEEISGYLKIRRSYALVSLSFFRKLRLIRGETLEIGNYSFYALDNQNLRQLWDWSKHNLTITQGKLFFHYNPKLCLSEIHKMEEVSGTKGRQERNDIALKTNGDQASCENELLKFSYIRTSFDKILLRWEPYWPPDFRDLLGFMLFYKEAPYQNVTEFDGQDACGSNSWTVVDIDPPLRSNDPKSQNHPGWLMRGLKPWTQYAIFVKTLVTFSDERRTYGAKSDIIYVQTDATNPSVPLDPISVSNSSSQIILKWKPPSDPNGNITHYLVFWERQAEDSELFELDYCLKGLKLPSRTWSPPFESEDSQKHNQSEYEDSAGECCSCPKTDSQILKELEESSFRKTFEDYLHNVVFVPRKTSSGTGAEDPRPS
Chain of Insulin receptor (Homo sapiens) (P06213 763-1382 limits assumed): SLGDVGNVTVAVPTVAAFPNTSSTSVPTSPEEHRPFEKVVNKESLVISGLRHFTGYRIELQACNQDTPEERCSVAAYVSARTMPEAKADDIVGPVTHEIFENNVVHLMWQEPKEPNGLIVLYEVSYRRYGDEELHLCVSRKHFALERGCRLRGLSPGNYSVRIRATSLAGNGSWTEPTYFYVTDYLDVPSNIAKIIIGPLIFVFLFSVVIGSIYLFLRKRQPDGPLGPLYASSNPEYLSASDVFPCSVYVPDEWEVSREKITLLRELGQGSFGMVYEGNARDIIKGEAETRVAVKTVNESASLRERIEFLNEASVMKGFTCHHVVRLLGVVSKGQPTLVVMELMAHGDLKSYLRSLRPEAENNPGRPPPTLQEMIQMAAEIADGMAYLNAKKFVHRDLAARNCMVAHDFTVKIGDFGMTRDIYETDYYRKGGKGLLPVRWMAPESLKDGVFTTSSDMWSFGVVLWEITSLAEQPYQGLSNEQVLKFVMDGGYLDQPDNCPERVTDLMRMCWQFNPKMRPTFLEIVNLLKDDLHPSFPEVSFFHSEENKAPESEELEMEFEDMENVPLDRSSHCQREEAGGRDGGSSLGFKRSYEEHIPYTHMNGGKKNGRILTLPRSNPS
Chain of Phosphorylase b kinase gamma catalytic chain, skeletal muscle/heart isoform (Homo sapiens) (Q16816 whole entry, looked up, canonical isoform): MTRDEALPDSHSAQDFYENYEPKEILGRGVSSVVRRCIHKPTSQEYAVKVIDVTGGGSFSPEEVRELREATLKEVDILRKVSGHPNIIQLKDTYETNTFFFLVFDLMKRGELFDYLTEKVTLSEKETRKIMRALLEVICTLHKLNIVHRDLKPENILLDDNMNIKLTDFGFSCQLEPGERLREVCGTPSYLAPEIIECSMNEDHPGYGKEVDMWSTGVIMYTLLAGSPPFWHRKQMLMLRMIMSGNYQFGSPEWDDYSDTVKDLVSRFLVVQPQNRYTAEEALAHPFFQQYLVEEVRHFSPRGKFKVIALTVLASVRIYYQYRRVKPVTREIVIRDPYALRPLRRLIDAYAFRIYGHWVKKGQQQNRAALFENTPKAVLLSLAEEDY

CC[C@H](Nc1ncnc2[nH]cnc12)c1nc2cccc(F)c2c(=O)n1-c1ccccc1
Activity [1]: 91.8% | Activity [2]: 94.8% | Activity [3]: 99% | Activity [4]: 92.9% | Activity [5]: 99.5% | Activity [6]: 96.8% | Activity [7]: 94.1% | Activity [8]: 95.5% | Activity [9]: 93.9%

C[C@H](Nc1ncnc2nc[nH]c12)c1cc2cccc(Cl)c2c(=O)n1-c1ccccc1
Activity [1]: 98.2% | Activity [2]: 97.4% | Activity [3]: 98.4% | Activity [4]: 98.9% | Activity [5]: 98.2% | Activity [6]: 98.2% | Activity [7]: 95.8% | Activity [8]: 92.2% | Activity [9]: 95.9%

CC(C)Oc1ccc(-c2nn([C@@H](C)c3oc4ccc(F)cc4c(=O)c3-c3cccc(F)c3)c3ncnc(N)c23)cc1F [UMBRALISIB]
Activity [1]: 105% | Activity [2]: 92.5% | Activity [3]: 95.4% | Activity [4]: 113% | Activity [5]: 99.5% | Activity [6]: 96.4% | Activity [7]: 96% | Activity [8]: 87.8% | Activity [9]: 96.4%
